{"source": "patent US12458646B2", "about": "“Therapeutic or preventing agent for multiple sclerosis including indole compound” (JAPAN TOBACCO INC., priority 2018, dated 2025)", "key": {"[1]": {"biological_target": "T1, inducible T cell kinase (ITK) (Homo sapiens, UniProt Q08881)", "T1 sequence (Q08881 1-620)": "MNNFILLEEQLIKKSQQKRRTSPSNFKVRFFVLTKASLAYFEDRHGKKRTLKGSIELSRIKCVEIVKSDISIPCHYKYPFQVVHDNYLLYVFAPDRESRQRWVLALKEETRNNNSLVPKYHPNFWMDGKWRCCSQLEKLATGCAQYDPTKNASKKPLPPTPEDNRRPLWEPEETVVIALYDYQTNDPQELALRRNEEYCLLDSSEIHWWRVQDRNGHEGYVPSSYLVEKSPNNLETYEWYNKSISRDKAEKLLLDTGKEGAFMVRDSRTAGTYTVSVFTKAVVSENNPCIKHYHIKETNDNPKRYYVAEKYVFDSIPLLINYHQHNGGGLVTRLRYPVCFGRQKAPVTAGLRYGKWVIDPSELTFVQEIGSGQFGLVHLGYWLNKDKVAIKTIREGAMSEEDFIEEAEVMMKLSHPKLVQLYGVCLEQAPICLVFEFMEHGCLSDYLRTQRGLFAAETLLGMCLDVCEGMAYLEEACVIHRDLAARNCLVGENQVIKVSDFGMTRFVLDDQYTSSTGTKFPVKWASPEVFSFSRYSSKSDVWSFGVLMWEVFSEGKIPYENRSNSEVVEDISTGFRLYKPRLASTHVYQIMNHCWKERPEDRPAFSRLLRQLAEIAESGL", "settings": "as described in patent document 1 (WO 2011/065402); cited from earlier work"}, "[2]": {"test_system": "mouse experimental autoimmune encephalomyelitis (EAE) model", "test": "disease animal model of MS (mouse experimental autoimmune encephalomyelitis (EAE) model, clinical score)", "assay_type": "in vivo", "settings": "experiment using a disease animal model of MS", "protocol": "Using a mouse EAE model, the suppressive effect of Compound A on an increase in clinical score was evaluated. The evaluation was performed by reference to non-patent document 3. As the experiment animal, 8-week-old female C57BL/6J mouse (CHARLES RIVER LABORATORIES JAPAN, INC.) was used. Monohydrochloride of Compound A was dissolved in 0.5% (w/v) methylcellulose (MC) to prepare 1 mg/mL, 3 mg/mL and 6 mg/mL Compound A solutions. FTY-720 hydrochloride (Cayman Chemical) was dissolved in 0.5% (w/v) MC to prepare a 0.01 mg/mL FTY-720 solution. […]\nAs clinical scores (score 0; normal, score 1; limp tail, score 2; hind limb weakness, score 3; partial hind limb paralysis, score 4; complete hind limb paralysis, score 5; moribund state, dead), the condition was observed over time and scored for each individual for 18 days from day 1.\nUsing a mouse Adoptive transfer EAE model, the suppressive effect of Compound A on an increase in clinical score was evaluated. […]\nAs clinical scores (score 0; normal, score 1; limp tail, score 2; hind limb weakness, score 3; partial hind limb paralysis, score 4; complete hind limb paralysis, score 5; moribund state, dead), the condition was observed over time and scored for each individual for 20 days from day 1."}}}
{"smiles": "C[C@@H](C(=O)N(C)c1ccc2cc(-c3n[nH]c4c3CCC(C)(C)C4)[nH]c2c1)N1CCOCC1", "note": "[Compound A, N-[2-(6,6-dimethyl-4,5,6,7-tetrahydro-1H-indazol-3-yl)-1H-indol-6-yl]-N-methyl-(2S)-2-(morpholin-4-yl)propanamide]", "values": [{"measurement": "ITK inhibitory activity", "setting": "[1]", "result": "has an ITK inhibitory activity"}, {"measurement": "severity of the disease", "setting": "[2]", "result": "significantly reduce severity of the disease"}]}
